Test results: patent US12161630B2, “Methods to control infection using new generation small molecule growth inhibitors” (priority 2017, dated 2024)
≈ marks a conversion by molar mass, not a printed value.

Key:
[1] = tested on: S. typhimurium WT; assay: MIC and MBC dose-response, serotype Typhimurium; format: cell-based, Salmonella enterica subsp. enterica serovar Typhimurium LT2; conditions: for MIC/MBC: Salmonella serotype Typhimurium, MIC identical to MBC
Experimental: (§1) An overnight Salmonella suspension was normalized at 0.05 OD600 (approximately 3.5×10^7 CFU/ml) with an adjusted M9 minimal broth medium (12.7 mM Na2HPO4 7H2O; 22 mM KH2PO4; 18.7 mM NH4Cl; 2 mM MgSO4; 0.1 mM CaCl2; 0.4% glucose; 0.05% casamino acids). 100 μL of the suspension plus 2 μl of SMs (200 μM) were transferred into each well of a sterile, non-treated, flat bottom 96-well plate. Bacteria alone (negative control, NC), 2% DMSO plus bacteria (DMSO control), 20 μg/ml chloramphenicol or 50 μg/ml kanamycin plus bacteria (positive controls, PC), and M9 medium only were used as control. Plates were incubated in a Sunrise™ Tecan kinetic microplate reader for 12 hrs at 37° C. and the optical density (OD) was measure at 600 nm as described above. Percentage of inhibition=(OD600 SM−OD600 NC)/(OD600 NC)×100. […] Cultures from wells showing no turbidimetric increase were transferred onto a XLT4 agar plate. Plates were incubated at 37° C. for 36 hrs.
(§2) Screens were performed as described in the primary screen. The lowest SM concentration with a static effect was considered as the minimal inhibitory concentration (MIC) and the lowest SM concentration with a cidal effect was considered as the minimal bactericidal concentration (MBC).

[2] = tested on: Salmonella Albany; assay: MIC and MBC dose-response, serotype Albany; format: cell-based, Salmonella enterica; conditions: MIC identical to MBC
Experimental: as §1, §2

[3] = tested on: Salmonella Enteritidis; assay: MIC and MBC dose-response, serotype Enteritidis; format: cell-based, Salmonella enterica; conditions: MIC identical to MBC
Experimental: as §1, §2

[4] = tested on: Salmonella Javiana; assay: MIC and MBC dose-response, serotype Javiana; format: cell-based, Salmonella enterica; conditions: MIC identical to MBC
Experimental: as §1, §2

[5] = tested on: Salmonella Newport; assay: MIC and MBC dose-response, serotype Newport; format: cell-based, Salmonella enterica; conditions: MIC identical to MBC
Experimental: as §1, §2

[6] = tested on: S. typhimurium cell membrane and nucleic acids; assay: Confocal microscopy of SM-challenged S. typhimurium (FM4-64, SYTO9); format: cell-based, Salmonella enterica subsp. Enterica serotype Typhimurium; conditions: 5×MBC of SMs for 3 hrs; compared to DMSO control
Source text: FIG. 13. Confocal and scanning electron microscopy (SEM) analyses of Salmonella enterica subsp. Enterica serotype Typhimurium after challenge with five times the minimal bactericidal concentration of small molecules (5×MBC of SMs) for 3 hrs. (A-O) Confocal microscopy: (A-E) S. typhimurium cell membrane stained with FM4-64; (F-J) S. typhimurium nucleic acids stained with SYTO9; (K-O) Merged pictures of the FM4-64 and SYTO9 staining. (P-S) SEM: (P) 1% dimethyl sulfoxide (DMSO) treated Salmonella; (Q) SM1 treated Salmonella; (R) SM4 treated Salmonella; (S) SM5 treated Salmonella; Bar: 1 μm.

[7] = tested on: M. gallisepticum; assay: Activity on avian pathogens at 200 μM, M. gallisepticum; format: cell-based, Mycoplasma gallisepticum
Experimental: FIGS. 1(A-E). Selection of potent Salmonella growth inhibitors. FIG. 1A: High-throughput screening of 4182 SMs against S. typhimurium WT at 200 μM. Negative value: growth inhibition; Positive value: growth stimulation compared to S. typhimurium growth not treated. The black line represents growth inhibition caused by 2% DMSO. FIG. 1B: Activity of 19 S. typhimurium growth inhibitors against additional Salmonella serotypes. Light grey cells: total growth inhibition; dark grey cells: bacterial growth observed; black cells: not determined. FIG. 1C: Dose-response assays of the selected 19 SMs against S. typhimurium WT. […] The black line represents a cut off of nine serotypes killed per SM. FIG. 1E: Activity spectra of the selected four SMs at 200 μM each on several avian-pathogens (Campylobacter jejuni, Escherichia coli APEC, and Mycoplasma gallisepticum) and beneficial gut bacteria (remaining species). E. coli APEC refers to Avian Pathogenic E. coli and includes E. coli O1, O2, O8, O15, O18, O35, O78, O109, and O115. Light grey cells: cidal effect; dark grey cells: bacterial growth observed. Left side: phylogenetic tree based on NCBI taxonomic ID built with PhyloT software.
The selected four SMs were tested on twelve beneficial-commensal gut bacteria at 200 μM (FIG. 1E). […] These four SMs were also growth inhibitors of other avian pathogens at 200 μM (unpublished data, FIG. 1E). […] The antimicrobial activity seemed not to be influenced by the taxonomic classification, however the SM5 bacterial target may be less present in prokaryotes than the drug target of the other three SMs.

SMILES	MIC/MBC [1]	MIC/MBC [2]	MIC/MBC [3]	MIC/MBC [4]	MIC/MBC [5]	FM4-64 cell membrane staining phenotype [6]	effect against M. gallisepticum [7]	MBC ([1]; Salmonella enterica, TYPHIMURIUM, read-out: MBCAlone of SM)
CC1CCC(C(C)C)C(OC(=O)Cn2c[n+](CC(=O)OC3CC(C)CCC3C(C)C)c3ccccc32)C1.[Cl-] (stereo not shown) [SM1, 1,3-bis{2-[(2-isopropyl-5-methylcyclohexyl)oxy]-2-oxoethyl}-1H-3,1-benzimidazol-3-ium chloride]	50 µM	100 µM	100 µM	100 µM	100 µM	No signal was detected	–	–
CCCCCCCCCCCCCCCC[n+]1ccn(CC#N)c1.[Cl-] [SM3, 1-(cyanomethyl)-3-hexadecyl-1H-imidazol-3-ium chloride]	25 µM	25 µM	25 µM	25 µM	50 µM	No signal was detected	killed	–
CCCCCCCCCCCCCCCCn1c[n+](C)c2ccccc21.[Br-] [SM4, 1-hexadecyl-3-methyl-1H-3,1-benzimidazol-3-ium bromide]	10 µM	10 µM	10 µM	10 µM	25 µM	No signal was detected	killed	–
CCOc1cc(/C=N/N=C(N)N)ccc1OCc1ccc(Cl)cc1 [SM5, N″-{4-[(4-chlorobenzyl)oxy]-3-ethoxybenzylidene}carbonohydrazonic diamide]	25 µM (≈ 8.67 µg/mL)	100 µM (≈ 34.7 µg/mL)	50 µM (≈ 17.3 µg/mL)	50 µM (≈ 17.3 µg/mL)	50 µM (≈ 17.3 µg/mL)	stained cell membrane; however, a bright red spot was detected within every bacterium	killed	25 µM (≈ 8.67 µg/mL)
